Values after ≈ are worked out from the molar mass of the structure shown. Where two headings read alike, the source gives them in different places.
Tests used:
S. pneumoniae D39 = assay: In vitro antimicrobial activity, MIC by broth micro-dilution; format: cell-based; conditions: for MIC: Streptococcus pneumoniae, D39, read-out: MIC class, S. pneumoniae D39
Experimental: (§1) In vitro antimicrobial activity of each compound was determined by measuring minimal inhibitor concentrations (MICs) using the broth micro-dilution technique as approved by the Clinical and Laboratory Standards Institute (CLSI). The microbiological panel examined contains a number of bacterial species including E. coli MG1655, P. aeruginosa, S. aureus, and S. epidermidis. In addition, the panel includes previously described pseudo-isogenic strains of these four species (P. A. Smith et al. Chem Biol 2010, 1223-1231), in which a specific proline residue in SPase (called LepB in Gram-negative organisms an SpsB in Gram-positive organisms) has been mutated to a different amino acid. The resulting strains have increased susceptibility to the arylomycin class of antibiotics. Analysis of the strains lacking this proline residue will increases the dynamic range of the assay, and comparison of the sensitivities of the isogenic pairs provides ongoing confirmation that the activity gained through derivatization is specific to the inhibition of SPase. Briefly, bacterial streaks were grown on Mueller Hinton Agar II (Difco™) with or without 5% lysed horse blood for a period of 24 hours at either 35° C. or 28° C. Bacterial colonies were suspended in cation adjusted Mueller Hinton broth and diluted to a final concentration of 1*10^7 colony forming units/ml. Two-fold serial dilutions of each compound were arrayed into 96-well plates (100 μl final volume per well) and 5 ul of the bacterial suspension will be added. […] MICs were periodically checked plating serial dilutions of MIC wells and quantitatively determining viable colonies.

[1] = tested on: S. aureus NCTC-8325 SpsB(P295); assay: as above; format: cell-based; conditions: for MIC: Staphylococcus aureus, NCTC8325, read-out: MIC class, S. aureus NCTC-8325 SpsB(P295)
Experimental: as §1

E. coli ATCC 25922 = assay: as above; format: cell-based; conditions: for MIC: Escherichia coli, ATCC25922, read-out: MIC class, E. coli ATCC 25922
Experimental: as §1

S. epidermidis RP62A = assay: as above; format: cell-based; conditions: for MIC: Staphylococcus epidermidis, RP62A, read-out: MIC class, S. epidermidis RP62A
Experimental: as §1

S. aurues NCTC-8325 = assay: as above; format: cell-based, S. aureus; conditions: for MIC: Staphylococcus aureus, NCTC8325, read-out: MIC class, S. aurues NCTC-8325
Experimental: as §1

E. coli SPase = target: T1, E. coli SPase (Escherichia coli, UniProt P00803); assay: Enzymatic fluorogenic substrate cleavage assay for IC50; format: biochemical
T1 construct: Full length His-tagged E. coli SPase proteins were expressed in E. coli BL21(DE3); His-tag; made in house; host or cells: E. coli BL21(DE3)
Experimental: (§2) Full length His-tagged E. coli SPase proteins were expressed in E. coli BL21(DE3) containing the plasmid pET23-lepB, P. A. Smith et al. Chem Biol 2010, 1223-1231. Briefly, saturated overnight cultures grown in 20 ml of Luria-Bertani medium supplemented with ampicillin were subcultures into 1.5 L of Luria-Bertani, and shaken at 37° C. until an optical density at 600 nm of 0.4-0.5 was achieved. Protein expression was induced with Isopropyl β-D-1-thiogalactopyranoside (ITPG) at a final concentration of […], and purified using nickel affinity chromatography. Full length His-tagged S. aureus SPase protein was expressed similarly from E. coli BL21(DE3) containing the plasmid pCDF1-SaSpsB or pCDF1-SaSpsB(P29S) and purified similarly to the E. coli protein with the following exceptions. SPase protein was solubilized using 300 mM NaCl, 20 mM Tris pH 8.06, 5 mM Imidazole, 10% glycerol, 1% Triton X-100, prior to purification in Ni-NTA Superflow resin and resin bound protein was washed in a similar buffer containing 1% Elugent in place of Triton X-100 prior to protein eluted in wash buffer supplemented with 300 mM imidazole. Protein purify was judged to exceed 95% by visual inspection of SDS-PAGE followed by Comassie staining. All protein concentrations were determined by BCA assay.
(§3) In addition to the equilibrium binding assays, compound activity is also characterized by measuring inhibition of E. coli and S. aureus substrate cleavage reactions using fluorogenic peptides developed at RQx Pharmaceuticals. Briefly, two fluorogenic peptide substrates (decanoyl-LSSPA Y^NO2 A ? ADK^abzPD (SEQ ID NO: 1) and decanyol-LTPTAY^NO2 A ? ASKK^abzDD (SEQ ID NO: 2)) have been synthesized, where abz is the fluorescence donor 2-aminobenzamide, YNO2 is the fluorescence acceptor 3-nitrotyrosine, and the cleavage site is indicated with an arrow. These substrates are processed with a second order rate constant (Kcat/KM) of 10^5 M^−1s^−1 for E. coli and S. aureus SPase enzymes, and cleavage results in a greater than 10-fold increase in fluorescence signal (excitation at 314 nm, emission at 416 nm) as measured using a SpectraMax M2 fluorescence microplate reader. Two-folder serial dilutions of compound are prepared in cleavage reaction buffer consisting of: 50 mM Tris-HCl pH 8.0, 100 mM NaCl, 10% glycerol, 1 mM EDTA, detergent (1% NP-40 or 0.1% Elugent™ for E. coli LepB or S. aureus SpsB respectively) and either 2.5 nM of E. coli SPase enzyme or 10 nM of S. aureus SPase enzyme. 40 μl aliquots of the compound dilution series in the protein/buffer solution is transferred to black 384-well polypropylene plates, and 10 μl of fluorogenic peptide at a concentration of 100 μM is added to initiate the reaction. The increase in fluorescence, corresponding to substrate cleavage, is monitored continuously at room temperature for 30 minutes and initial reaction rates are calculated based in the linear increase in fluorescence from the initial 30 minutes of the reaction. Reaction rates are plotted as a function of compound concentration, and IC50 values are determined nonlinear regression analysis (SoftMax® Pro v5.4) of the sigmoidal dose-response curve.

S. aureus SPase = target: T2, S. aureus SPase (Staphylococcus aureus, UniProt P0A070); assay: as above; format: biochemical
T2 construct: Full length His-tagged S. aureus SPase protein was expressed similarly; His-tag; made in house; host or cells: E. coli BL21(DE3)
Experimental: as §2, §3

[2] = tested on: E. col ATCC 25922 LepB(P84L); assay: In vitro antimicrobial activity, MIC by broth micro-dilution; format: cell-based, E. coli; conditions: for MIC: Escherichia coli, ATCC25922, read-out: MIC class, E. col ATCC 25922 LepB(P84L)
Experimental: as §1

| Structure (SMILES) | MIC (S. pneumoniae D39) [µg/mL] | MIC [1] [µg/mL] | MIC (E. coli ATCC 25922) [µg/mL] | MIC (S. epidermidis RP62A) [µg/mL] | MIC (S. aurues NCTC-8325) [µg/mL] | IC50 (E. coli SPase) [nM] | IC50 (S. aureus SPase) [nM] | MIC [2] [µg/mL] | MIC class, S. pneumoniae D39 (S. pneumoniae D39) | MIC class, S. aureus NCTC-8325 SpsB(P295) [1] | MIC class, E. coli ATCC 25922 (E. coli ATCC 25922) | MIC class, S. epidermidis RP62A (S. epidermidis RP62A) | IC50 (E. coli SPase; fluorogenic peptide cleavage, read-out: IC50 class E. coli SPase) [nM] | IC50 (S. aureus SPase; fluorogenic peptide cleavage, read-out: IC50 class S. aureus SPase) [nM] | MIC class, E. col ATCC 25922 LepB(P84L) [2] | MIC class, S. aurues NCTC-8325 (S. aurues NCTC-8325; S. aurues NCTC-8325) |
| --- | --- | --- | --- | --- | --- | --- | --- | --- | --- | --- | --- | --- | --- | --- | --- | --- |
| CCCCCCCCCCCCCCCC(=O)N[C@H](CO)C(=O)N[C@H](C)C(=O)N[C@@H](C)C(=O)N(C)[C@@H]1C(=O)N[C@@H](C)C(=O)N[C@H](C(=O)O)Cc2ccc(O)c(c2)-c2cc1ccc2O [Compound 87] | > 64 | > 64 | > 64 | < 8 | > 64 | < 1000 | < 1000 | > 64 |  |  |  |  |  |  |  |  |
| CCCCCCCCCCCCCCCC(=O)N(C)[C@H](CO)C(=O)N[C@H](C)C(=O)NCC(=O)N(C)[C@@H]1C(=O)N[C@@H](C)C(=O)N[C@H](C(=O)NC(CO)CO)Cc2ccc(O)c(c2)-c2cc1ccc2O [Compound 67] | 16 to 64 (≈ 16.8 to 67.1 µM) | > 64 | > 64 | 16 to 64 (≈ 16.8 to 67.1 µM) | > 64 | > 10000 | > 10000 | 16 to 64 (≈ 16.8 to 67.1 µM) |  |  |  |  |  |  |  |  |
| CCCCCCCCCCCCCCCC(=O)N(C)[C@H](CN)C(=O)N[C@H](C)C(=O)NCC(=O)N(C)[C@@H]1C(=O)N[C@@H](C)C(=O)N[C@H](C(=O)O)Cc2ccc(O)c(c2)-c2cc1ccc2O [Compound 52] |  |  |  |  |  |  |  |  | b (MIC 16-64 μg/ml) | b (MIC 16-64 μg/ml) | a (MIC >64 μg/ml) | b (MIC 16-64 μg/ml) | 1000 to 10000 | < 1000 | a (MIC >64 μg/ml) |  |
| CCCCc1ccc(-c2ccc(C(=O)N(C)[C@H](CO)C(=O)N[C@H](C)C(=O)N[C@@H](CCCCN)C(=O)N(C)[C@@H]3C(=O)N[C@@H](C)C(=O)N[C@H](C(=O)O)Cc4ccc(O)c(c4)-c4cc3ccc4O)cc2)cc1 [Compound 96] |  |  |  |  |  |  |  |  | a (MIC >64 μg/ml) | a (MIC >64 μg/ml) | a (MIC >64 μg/ml) | b (MIC 16-64 μg/ml) |  |  | b (MIC 16-64 μg/ml) | a (MIC >64 μg/ml) |
| CCCCc1ccc(-c2ccc(C(=O)N[C@H](CO)C(=O)N[C@H](C)C(=O)N[C@@H](CCCCN)C(=O)N(C)[C@@H]3C(=O)N[C@@H](C)C(=O)N[C@H](C(=O)O)Cc4ccc(O)c(c4)-c4cc3ccc4O)cc2)cc1 [Compound 98] | > 64 |  | > 64 | 16 to 64 (≈ 17.1 to 68.4 µM) | > 64 |  |  | < 8 |  |  |  |  |  |  |  |  |
| CCCCCCCCCCCCCCCC(=O)N[C@H](CCN)C(=O)N[C@H](C)C(=O)NCC(=O)N(C)[C@@H]1C(=O)N[C@@H](C)C(=O)N[C@H](C(=O)O)Cc2ccc(O)c(c2)-c2cc1ccc2O [Compound 53] | 16 to 64 (≈ 18.2 to 72.7 µM) | > 64 | > 64 | 16 to 64 (≈ 18.2 to 72.7 µM) |  | 1000 to 10000 | < 1000 | > 64 |  |  |  |  |  |  |  |  |
| CCCCCCCCCCCCCCCC(=O)N(C)[C@H](CO)C(=O)N[C@H](CCc1ccccc1)C(=O)NCC(=O)N(C)[C@@H]1C(=O)N[C@@H](C)C(=O)N[C@H](C(=O)O)Cc2ccc(O)c(c2)-c2cc1ccc2O [Compound 41] | > 64 | > 64 | > 64 | < 8 |  | < 1000 | < 1000 | > 64 |  |  |  |  |  |  |  |  |
| CCCCCCc1ccc(C(=O)N(C)[C@H](CO)C(=O)N[C@H](C)C(=O)N[C@@H](CCCCN)C(=O)N(C)[C@@H]2C(=O)N[C@@H](C)C(=O)N[C@H](C(=O)O)Cc3ccc(O)c(c3)-c3cc2ccc3O)cc1 [Compound 97] | > 64 |  | > 64 | 16 to 64 (≈ 17.7 to 70.9 µM) | > 64 |  |  | 16 to 64 (≈ 17.7 to 70.9 µM) |  |  |  |  |  |  |  |  |
| CCCCCCCCCCCCCCCC(=O)N(C)[C@H](CO)C(=O)N[C@H](C)C(=O)NCC(=O)N(C)[C@@H]1C(=O)N[C@@H](C)C(=O)N[C@H](C(=O)OC[C@H](C)N)Cc2ccc(O)c(c2)-c2cc1ccc2O [Compound 57] | 16 to 64 (≈ 17.1 to 68.2 µM) | > 64 | > 64 | < 8 |  | 1000 to 10000 | 1000 to 10000 | 16 to 64 (≈ 17.1 to 68.2 µM) |  |  |  |  |  |  |  |  |
| CCCCCCCCCCCCCCCC(=O)N(C)[C@H](CO)C(=O)N[C@H](C)C(=O)NCC(=O)N(C)[C@@H]1C(=O)N[C@@H](C)C(=O)N[C@H](C(=O)N[C@@H](C)CO)Cc2ccc(O)c(c2)-c2cc1ccc2O [Compound 56] | 16 to 64 (≈ 17.1 to 68.2 µM) | > 64 | > 64 | < 8 |  | 1000 to 10000 | > 10000 | > 64 |  |  |  |  |  |  |  |  |
| CCCCCCCCCCCCCCCC(=O)N(C)[C@H](CO)C(=O)N[C@H](C)C(=O)NCC(=O)N(C)[C@@H]1C(=O)N[C@@H](C)C(=O)N[C@H](C(=O)NCCO)Cc2ccc(O)c(c2)-c2cc1ccc2O [Compound 54] | < 8 | 16 to 64 (≈ 17.3 to 69.3 µM) | > 64 | < 8 |  | < 1000 | 1000 to 10000 | < 8 |  |  |  |  |  |  |  |  |
| CCCCCCCCCCCCCCCC(=O)N(C)[C@H](CO)C(=O)N[C@H](Cc1ccccc1)C(=O)NCC(=O)N(C)[C@@H]1C(=O)N[C@@H](C)C(=O)N[C@H](C(=O)O)Cc2ccc(O)c(c2)-c2cc1ccc2O [Compound 39] | 16 to 64 (≈ 16.7 to 66.9 µM) | > 64 | > 64 | 16 to 64 (≈ 16.7 to 66.9 µM) |  | < 1000 | < 1000 | < 8 |  |  |  |  |  |  |  |  |
| CCCCCCCCCCCCCCCC(=O)N(C)[C@H](CO)C(=O)N[C@H](C)C(=O)NCC(=O)N(C)[C@@H]1C(=O)N[C@@H](C)C(=O)N[C@H](C(=O)OCCN)Cc2ccc(O)c(c2)-c2cc1ccc2O [Compound 55] | < 8 | > 64 | > 64 | < 8 |  | 1000 to 10000 | 1000 to 10000 | 16 to 64 (≈ 17.3 to 69.3 µM) |  |  |  |  |  |  |  |  |
